Among the data in patent US7566718B2, “Amine-linked pyridyl and phenyl substituted piperazine-piperidines with CXCR3 antagonist activity” (Schering Corporation, priority 2005, dated 2009) are IC50 values, retold here.

The structures appear in SMILES notation.

The test has as its target T1, human CXCR3 (N-delta 4) (Homo sapiens, UniProt P49682).
T1 construct: CD8 leader (N); Flag tag; expressed in transfected cells; membrane preparation
T1 sequence (P49682 5-368 limits assumed): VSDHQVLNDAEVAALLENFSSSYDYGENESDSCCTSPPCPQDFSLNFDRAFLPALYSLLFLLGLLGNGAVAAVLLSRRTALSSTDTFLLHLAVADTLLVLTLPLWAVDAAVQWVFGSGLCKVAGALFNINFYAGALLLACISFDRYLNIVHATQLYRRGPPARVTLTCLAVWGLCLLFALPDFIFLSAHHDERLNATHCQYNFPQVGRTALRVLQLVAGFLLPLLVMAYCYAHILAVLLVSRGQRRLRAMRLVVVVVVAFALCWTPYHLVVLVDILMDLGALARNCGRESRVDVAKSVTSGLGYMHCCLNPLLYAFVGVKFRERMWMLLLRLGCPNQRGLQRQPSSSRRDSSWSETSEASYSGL
The test is described as follows: Human CXCR3 (N-delta 4) scintillation proximity assay (SPA), [125I] IP-10 binding to Ba/F3-hCXCR3 membranes. As to conditions: IC50 rating; [125I] IP-10 displacement, human CXCR3; read-out: IC50. A digest of the protocol: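 Membranes from Ba/F3 cells expressing Flag-tagged hCXCR3 (N-delta 4), 2 μg/point, precoupled to WGA SPA beads. Binding of 25 pM [125I] IP-10 measured with titrated compounds, 3 hr at room temperature, in HEPES buffer with CaCl2, MgCl2, NaCl and 1.0% BSA; bound tracer read by scintillation counting.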
On to `C[C@@H]1CN(C2CCN(Cc3ccc(Cl)cc3F)CC2)[C@@H](C)CN1c1ncc(Nc2c(N)c(=O)c2=O)cc1Cl` [Compound 100], for which the IC50 (commonly the point on the concentration scale where inhibition reaches its midpoint) is < 25 nM.

Take `CC[C@H]1CN(c2ncc(NC3=NS(=O)(=O)N=C3NCCN)cc2Cl)CCN1C1CCN(Cc2ccc(Cl)cc2F)CC1` [Compound 279]: the IC50 was > 100 nM.

For the compound `CC[C@H]1CN(c2cc(N)c(N)cc2Cl)CCN1C1CCN(Cc2ccc(Cl)cc2F)CC1` [Compound 226], the 50% inhibitory concentration (IC50) was > 100 nM. The figure for `CC[C@H]1CN(c2ncc(Nc3c(NC4CC4)c(=O)c3=O)cc2Cl)CCN1C1CCN([C@H](C(=O)NC)c2ccc(Cl)cc2)CC1` [Compound 149] is > 100 nM; for `CC[C@H]1CN(c2ncc(Nc3c(NCC(=O)OC(C)(C)C)c(=O)c3=O)cc2Cl)CCN1C1CCN([C@@H](CO)c2ccc(Cl)cc2)CC1` [Compound 139] it is > 100 nM.

Consider `C[C@H]1CN(c2ncc(NC(=O)c3cccnc3)cc2Cl)CCN1C1CCN(Cc2ccc(Cl)cc2)CC1` [Compound 196], for which the IC50 is > 100 nM. The same measure for `CC[C@H]1CN(c2ncc(Nc3c(NC4CC4)c(=O)c3=O)cc2Cl)CCN1C1CCN(Cc2ccc(Cl)cc2F)CC1` [Compound 73]: < 25 nM; for `CC[C@H]1CN(c2ncc(NS(=O)(=O)C(C)C)cc2Cl)CCN1C1CCN(Cc2ccc(Cl)cc2F)CC1` [Compound 29]: 25 to 100 nM. The figure for `CC[C@H]1CN(c2ncc(NS(C)(=O)=O)cc2Cl)CCN1C1CCN(Cc2ccc(Cl)cc2O)CC1` [Compound 34] is 25 to 100 nM; for `CC[C@H]1CN(c2ncc(NC3=NS(=O)(=O)N=C3NC3CC3)cc2Cl)CCN1C1CCN(Cc2ccc(Cl)cc2C#N)CC1` [Compound 260] it is 25 to 100 nM; for `C[C@@H]1CN(C2CCN(Cc3ccc(Cl)cc3F)CC2)[C@@H](C)CN1c1ncc(Nc2c(NC3CC3)c(=O)c2=O)cc1Cl` [Compound 90] it is < 25 nM. On to `CCC(=O)[C@@H](c1ccc(Cl)cc1)N1CCC(N2CCN(c3ncc(NS(N)(=O)=O)cc3Cl)C[C@@H]2CC)CC1` [Compound 41], for which the IC50 was > 100 nM. The same measure for `C[C@@H]1CN(c2ncc(Nc3c(NCC(F)(F)F)c(=O)c3=O)cc2Cl)[C@@H](C)CN1C1CCN(Cc2ccccc2Cl)CC1` [Compound 155]: > 100 nM; for `CC[C@H]1CN(c2ncc(NC3=NS(=O)(=O)N=C3NCC(F)(F)F)cc2Cl)CCN1C1CCN(Cc2ccc(F)c(F)c2)CC1` [Compound 264]: > 100 nM; for `CC[C@H]1CN(c2ncc(Nc3c(NC4CC4)c(=O)c3=O)cc2Cl)CCN1C1CCN(C(=O)c2ccc(Cl)cc2N)CC1` [Compound 111]: 25 to 100 nM. The figure for `CCC(=O)Nc1cnc(N2CCN(C3CCN(Cc4ccc(Cl)cc4)CC3)[C@@H](C)C2)c(Cl)c1` [Compound 187] is 25 to 100 nM; for `CC[C@H]1CN(c2ncc(NC3=NS(=O)(=O)N=C3NCCO)cc2Cl)CCN1C1CCN(Cc2ccc(OC(F)(F)F)cc2)CC1` [Compound 239] it is < 25 nM.
